According to patent publication US6492395B1, “Topical formulation of alkyl-, phenyl-pyridone” (Mepha AG, priority 2001, dated 2002):

Assay: Stability test, 6 months storage under standard storage conditions
Format: physicochemical
Procedure: Stability testing was carried out as above.

**Q.** Which “effect on physical stability of emulsions and other colloidal systems” value does the source give for `Cc1ccc(=O)n(-c2ccccc2)c1` [5-methyl-1-phenyl-2-(1H)-pyridone] here?
**A.** Its value is “emulsion destabiliser”.
